According to patent EP4417201A1, “PHARMACEUTICAL COMPOSITIONS FOR USE IN CANCER TREATMENT” (Robert Bosch Gesellschaft für medizinische Forschung mbH, priority 2023, dated 2024):

Biological target: T1, purified porcine tubulin (Sus scrofa, UniProt P02550+P02554)
T1 construct: purchased Cytoskeleton, Denver, CO, USA BK006P
Assay: Tubulin polymerization assay
Assay type: biochemical
Conditions: 10 µM, absorbance at 340 nm, 35°C
Description: A tubulin polymerization assay kit (part# BK006P, Cytoskeleton, Denver, CO, USA) was used to address the direct effects of chemical compounds on tubulin polymerization dynamics. A porcine >99% pure tubulin preparation (3 mg/ml) free of microtubule-associated proteins in 80 mM PIPES pH 6.9, 2 mM MgCl2, 0.5 mM EGTA, 1 mM GTP, and 10.2% glycerol was incubated with Formula A-1 (100 µM), Formula A-2(100 µM), paclitaxel (10 µM), or buffer. Microtubule polymerization was initiated by tubulin addition; changes in microtubule turbidity were measured kinetically at 340 nm at 35°C (EnSpire Multimode Plate Reader 2300, PerkinElmer).
To determine whether the influence of compounds of Formula A-1 and Formula A-2 on microtubule formation was due to on-target activity, the direct effect of chalcone compounds of Formula A on tubulin polymerization rates was examined by incubation of purified porcine tubulin with Formula A-1 or Formula A-2 and comparison of the results with those of paclitaxel, a well-established microtubule-stabilizing agent. Microtubule formation was measured kinetically at an absorbance of 340 nm.

T1 sequence (P02550 whole entry): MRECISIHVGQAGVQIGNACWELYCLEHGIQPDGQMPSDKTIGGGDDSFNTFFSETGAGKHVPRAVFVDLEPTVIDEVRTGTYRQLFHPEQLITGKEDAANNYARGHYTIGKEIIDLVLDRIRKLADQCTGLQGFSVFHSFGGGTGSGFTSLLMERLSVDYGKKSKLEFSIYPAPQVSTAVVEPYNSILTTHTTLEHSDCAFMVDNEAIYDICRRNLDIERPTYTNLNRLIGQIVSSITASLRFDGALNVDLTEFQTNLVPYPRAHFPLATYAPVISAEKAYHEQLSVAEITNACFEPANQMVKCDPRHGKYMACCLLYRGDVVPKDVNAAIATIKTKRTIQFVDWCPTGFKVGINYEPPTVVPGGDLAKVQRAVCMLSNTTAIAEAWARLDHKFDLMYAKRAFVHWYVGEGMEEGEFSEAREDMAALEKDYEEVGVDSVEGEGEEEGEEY
T1 sequence (P02554 whole entry): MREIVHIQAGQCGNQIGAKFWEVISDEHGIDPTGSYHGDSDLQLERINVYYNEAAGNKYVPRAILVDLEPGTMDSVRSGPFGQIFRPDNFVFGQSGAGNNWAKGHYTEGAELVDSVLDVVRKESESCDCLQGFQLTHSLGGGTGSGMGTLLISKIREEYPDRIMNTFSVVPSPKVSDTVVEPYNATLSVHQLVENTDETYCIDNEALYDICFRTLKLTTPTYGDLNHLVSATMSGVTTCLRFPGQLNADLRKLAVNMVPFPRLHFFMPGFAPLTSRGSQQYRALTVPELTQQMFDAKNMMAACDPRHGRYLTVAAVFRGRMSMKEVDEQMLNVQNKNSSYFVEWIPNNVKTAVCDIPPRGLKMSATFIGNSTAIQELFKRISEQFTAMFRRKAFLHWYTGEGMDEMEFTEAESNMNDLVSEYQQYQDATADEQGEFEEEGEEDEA

Question: CC(=O)O[C@H]1C(=O)[C@@]2(C)[C@H]([C@H](OC(=O)c3ccccc3)[C@]3(O)C[C@H](OC(=O)[C@H](O)[C@@H](NC(=O)c4ccccc4)c4ccccc4)C(C)=C1C3(C)C)[C@]1(OC(C)=O)CO[C@@H]1C[C@@H]2O [paclitaxel] was tested. Which tubulin polymerization did it give?
Answer: Its tubulin polymerization is “the kinetics of tubulin polymerization is enhanced and the polymerization equilibrium shifts towards polymerized tubulin”.
